Experimental data published in ChEMBL document CHEMBL3600327, “Synthesis of a novel series of fluoroarene derivatives of artemisinin as potent antifungal and anticancer agent” (Bioorg Med Chem Lett, 2015).

Experiments:
Fusarium oxysporum [1] = assay: Antifungal activity against Fusarium oxysporum assessed as inhibition of mycelia growth at 200 ppm after 1 week by filter paper method relative to control; assay type: functional; settings: 168 h, read-out: GI
Fusarium oxysporum [2] = assay: Antifungal activity against Fusarium oxysporum assessed as inhibition of mycelia growth at 800 ppm after 1 week by filter paper method relative to control; assay type: functional; settings: 168 h, read-out: GI
Fusarium oxysporum [3] = assay: Antifungal activity against Fusarium oxysporum assessed as inhibition of mycelia growth at 600 ppm after 1 week by filter paper method relative to control; assay type: functional; settings: 168 h, read-out: GI
Fusarium oxysporum [4] = assay: Antifungal activity against Fusarium oxysporum assessed as inhibition of mycelia growth at 400 ppm after 1 week by filter paper method relative to control; assay type: functional; settings: 168 h, read-out: GI
Fusarium oxysporum [5] = assay: Antifungal activity against Fusarium oxysporum assessed as inhibition of mycelia growth at 1000 ppm after 1 week by filter paper method relative to control; assay type: functional; settings: 168 h, read-out: GI
HeLa = assay: Cytotoxicity against human HeLa cells measured at 48 hrs by MTT assay; assay type: functional, cell-based

Compound | inhibition of growth at 200 ppm (Fusarium oxysporum [1]) [%] | inhibition of growth at 800 ppm (Fusarium oxysporum [2]) [%] | inhibition of growth at 600 ppm (Fusarium oxysporum [3]) [%] | inhibition of growth at 400 ppm (Fusarium oxysporum [4]) [%] | inhibition of growth at 1000 ppm (Fusarium oxysporum [5]) [%] | IC50 (HeLa) [µM]
C#CCO[C@H]1O[C@@H]2O[C@@]3(C)CC[C@H]4[C@H](C)CC[C@@H]([C@H]1C)[C@@]24OO3 | 64.8 | 70.2 | 68.8 | 66.4 | 72 | 
C#CCCO[C@H]1O[C@@H]2O[C@@]3(C)CC[C@H]4[C@H](C)CC[C@@H]([C@H]1C)[C@@]24OO3 | 70 | 76.8 | 75.4 | 73.2 | 77.6 | 
C[C@H]1[C@@H](OCCC#Cc2ccc(-c3ccc(F)cc3)cc2)O[C@@H]2O[C@@]3(C)CC[C@H]4[C@H](C)CC[C@@H]1[C@@]24OO3 | 67 | 71 | 70.2 | 67.9 | 72.8 | 13.1
C[C@H]1[C@@H](OCCC#Cc2ccc(-c3cccc(C(F)(F)F)c3)cc2)O[C@@H]2O[C@@]3(C)CC[C@H]4[C@H](C)CC[C@@H]1[C@@]24OO3 | 65.6 | 69 | 67.6 | 66.5 | 70.2 | 
C[C@H]1[C@@H](OCCC#Cc2ccc(-c3ccc(F)cc3)s2)O[C@@H]2O[C@@]3(C)CC[C@H]4[C@H](C)CC[C@@H]1[C@@]24OO3 | 66.4 | 69.9 | 68 | 66.9 | 71 | 36.6
C[C@H]1[C@@H](OCCC#Cc2cccc(-c3ccc(F)cc3)c2)O[C@@H]2O[C@@]3(C)CC[C@H]4[C@H](C)CC[C@@H]1[C@@]24OO3 | 64 | 68 | 66.4 | 65.2 | 69.8 | 112
C[C@H]1[C@@H](OCC#Cc2ccc(F)cc2)O[C@@H]2O[C@@]3(C)CC[C@H]4[C@H](C)CC[C@@H]1[C@@]24OO3 | 53.5 | 57.6 | 56 | 54.4 | 59 | 26.3
C[C@H]1[C@@H](OCC#Cc2cccc(F)c2)O[C@@H]2O[C@@]3(C)CC[C@H]4[C@H](C)CC[C@@H]1[C@@]24OO3 | 60 | 64 | 62 | 61.8 | 65.2 | 14
C[C@H]1[C@@H](OCC#Cc2ccccc2F)O[C@@H]2O[C@@]3(C)CC[C@H]4[C@H](C)CC[C@@H]1[C@@]24OO3 | 53.6 | 56.8 | 55.2 | 54.2 | 57.6 | 139
C[C@H]1[C@@H](OCCC#Cc2ccc(F)nc2)O[C@@H]2O[C@@]3(C)CC[C@H]4[C@H](C)CC[C@@H]1[C@@]24OO3 | 62.4 | 66.4 | 65 | 63.9 | 67.8 | 20.9
C[C@H]1[C@@H](OCC#Cc2ccc(F)nc2)O[C@@H]2O[C@@]3(C)CC[C@H]4[C@H](C)CC[C@@H]1[C@@]24OO3 | 56.4 | 62.5 | 61 | 58.4 | 63.8 | 
C[C@@H]1CC[C@H]2[C@@H](C)C(=O)O[C@@H]3O[C@@]4(C)CC[C@@H]1[C@]32OO4 [ARTEMISININ] | 72 | 77.2 | 76 | 75.5 | 78.5 | 493
